We go through two compounds from US20100166737A1, “P38Alpha as a Therapeutic Target in Bladder Carcinoma” (INSTITUT CURIE, priority 2007, published 2010).

The subject of test [1] is control mice basal epidermal cells. Put plainly: BrdU labelling, basal epidermal cell proliferation in control littermate mice. Format: in vivo. The conditions noted are these: 100 μM SB203580 on snout daily during 2 weeks, FIG. 3D. As for the experimental part:
(§1) Transgenic mice (K5-FGFR3-S249C) expressing mutated receptor FGFR3b— S249C in basal cells of the epidermis were established previously (Logi& et al 2005, Hum. Mol. Genet. 14, 1153-1160). 40 μl of 100 μM SU5402 or of 100 μM SB203580 or of vehicule (acetone) were applied daily during 2 weeks on snout of 3 to 4 months old transgenic mice who had developed epidermal tumours on snout or of control littermates mice. Two hours prior sacrifice mice were injected (i.p), with 0.25 mg/g body weight Brdu (Sigma, Saint-Quentin Falavier, France). Brdu immunohistochemistry was performed on parafine embed snout tissue with BrdU in situ detection kit (BD Pharmingen, San Diego, Calif., USA) according to the manufacturer's instructions. The number of BrdU-labeled cells among 500 cells from basal epidermis layer was determined for each mouse. Total snout cells lysate (75 μg) were analyzed as described above using antibodies against p38 and phospho-p38 (Pp38).

Test [2] has as its system NIH-3T3 cell line transfected by mutated FGFR3-S249C. The conditions noted are these: AACR abstract April 2005; cited from earlier work.
Test [3] relates to MGH-U3 xenograft. Put plainly: MGH-U3 xenograft growth in athymic nude mice. Type of test: in vivo. The conditions noted are these: intratumoral, daily, 100 μl of 20 μM, up to 25 days; FIG. 2D. As for the experimental part:
Ten six-week-old female Swiss nu/nu mice were raised in the animal facilities of the Curie Institute in specified pathogen-free conditions. Their care and housing were in accordance with the institutional guidelines of the French National Ethics Committee (Ministere de l'Agriculture et de la Forêt, Direction de la Santë et de la Protection Animate, Paris, France) and were supervised by authorised investigators. Each mouse was injected subcutaneously in each flank (dorsal region) with 4×10^6 cells/site. When tumours reached 50 mm^3 (+/−10), mice were randomly separated into two group of 5 mice. 100 μl of 20 μM SB203580 or equal volume of PBS were administrated daily in tumours. Tumour formation was monitored for up to 25 days and the size of tumours was measured with Vernier calipers: two perpendicular diameters were used to estimate tumour volumes by the formule ab^2/2, where a is the largest and b the smallest diameter.

The subject of test [4] is MGH-U3 cells. Put plainly: Soft agar assay, anchorage-independent growth of MGH-U3 cells. Format: cell-based, human. The conditions noted are these: 14 days; FIG. 2C. As for the experimental part:
(§2) For NIH-3T3, 30,000 transfected cells were added, in triplicate, to each well of a 12-well plate containing DMEM supplemented with 10% NCS and solidified with agar. For MGH-U3, 20,000 non-transfected or siRNA-transfected cells were added, to triplicate wells of 12-well plates containing MEM supplemented with 10% FCS and agar. When necessary, both cell types were cultured in the presence or absence of different inhibitors in agar and in culture medium. The same amount of inhibitor was added to the culture medium weekly.
(§3) The plates were incubated for 21 or 14 days for NIH-3T3 and MGH-U3 cells respectively, and colonies with diameters greater than 50 μm were then scored as positive, using a phase-contrast microscope equipped with a measuring grid.

Test [5] relates to NIH-3T3 cell line transfected by mutated FGFR3-S249C. To be noted: AACR abstract April 2005; cited from earlier work. This is another data set of the same source.
Test [6] relates to transgenic mice tumor cell proliferation. Put plainly: BrdU labelling, snout tumour cell proliferation in K5-FGFR3-S249C transgenic mice. Type of test: in vivo. To be noted: 100 μM SB203580 on snout daily during 2 weeks; FIG. 3D. As for the experimental part: as §1
The test system of test [7] is FGFR3-S249C-expressing NIH-3T3 cells (clone S249C1.2). Put plainly: Morphology analysis of FGFR3-S249C-expressing NIH-3T3 cells. Type of test: cell-based. The conditions noted are these: 30 μM, 48 h; FIG. 1C. As for the experimental part: (§4) NIH-3T3 cells were cultured 48 h in presence of different inhibitors, SB203580 and SU5402 (Calbiochem, Merck Eurolab, Fontenay Sous Bois, France), and pictures were taken using a phase-contrast microscope.

The test system of test [8] is NIH-3T3 control cells. Put plainly: Morphology analysis of NIH-3T3 control cells. Type of test: cell-based. To be noted: data not shown. As for the experimental part:
as §4

Test [9] relates to FGFR3-S249C-expressing cells (S249C1.2). Put plainly: Soft agar assay of FGFR3-S249C-expressing NIH-3T3 cells. Format: cell-based. To be noted: 21 days, colonies greater than 50 μm; FIG. 1D. As for the experimental part: as §2, §3
The subject of test [10] is p38 phosphorylation in MGH-U3 cells. The test can be described thus: Immunoblot of p38 phosphorylation in MGH-U3 cells. The conditions noted are these: 30 μM SU5402, 24 hours; FIG. 2A. Format: cell-based, human. As for the experimental part:
(§5) Transfected NIH-3T3 cells were washed once with PBS and serum-starved for 24 h. Where required, cells were stimulated for 5 min with 20 ng/ml FGF1 in the presence of 50 μg/ml heparin at 37° C. They were then lysed in lysis buffer (50 mM Tris-HCl (pH 7.4), 150 mM NaCl, 1% NP-40, 0.25% sodium deoxycholate, 1 mM EDTA, 1 mM Na3VO4, 5 mM NaF, 1 μ/ml aprotinin, 1 μg/ml leupeptin and 1 μg/ml pepstatin) and the lysates were clarified by centrifugation. The protein concentrations of the supernatants were determined with the Biorad Bradford Protein Assay Kit (BioRad, Ivry sur Seine, France). Proteins from total cell lysates (75 μg protein) were resolved by SDS-PAGE on 10% polyacrylamide gels, electrotransferred to Immobilon-P membrane in 25 mM Tris, pH 8.3, 200 mM glycine, 10% ethanol and analyzed using antibodies against p38 (#9212), Aid (#9272), p42/p44 (#9102) and the phosphorylated forms of these proteins (phospho AKT (Thr308) #9275; phospho p42/p44 (thr202/tyr204) # 9101; phospho p38 (thr180/tyr182) (cell signaling Technology, Ozyme, Montigny le Bretonneux, France)
MGH-U3 total cell lysates (75 μg) were analyzed similarly using antibodies against p38, phospho-p38 and Akt.

For test [11], the system named is p38 phosphorylation in transgenic mice snout. Put plainly: Immunoblot of p38 phosphorylation in snout of K5-FGFR3-S249C transgenic mice. Format: in vivo. To be noted: 100 μM SU5402 on snout daily during 2 weeks; FIG. 3C. As for the experimental part: as §1
In test [12] the test system is p38 phosphorylation in FGFR3-S249C expressing NIH-3T3 clones. The test can be described thus: Immunoblot of p38 phosphorylation in FGFR3-S249C expressing NIH-3T3 clones. Format: cell-based. The conditions noted are these: 30 μM SU5402, 24 hours; clones S249C1.1 and S249C1.2; FIG. 1B. As for the experimental part:
as §5

Take `C[S+]([O-])c1ccc(-c2nc(-c3ccncc3)c(-c3ccc(F)cc3)[nH]2)cc1` (stereo not drawn) [SB203580]: the “basal epidermal cells proliferation (BrdU labelling)” value in [1] is listed as “no effect”. In addition, in [2], the “transformed phenotype of the cells” value is “inhibits”. Also, the MGH-U3 xenograft growth entry in test [3] is “significantly reduced”. Further, in test [4], the “colonies on soft agar relative to control cells” value is on record as “one third”. Further, the “abilities to form colonies in soft agar” value in [5] is recorded as “inhibits”. In addition, in [6], the “tumor cell proliferation (BrdU labelling)” value is reported as “significant decreased”. Moreover, the “transformed phenotype (morphology)” value in test [7] was “reverted”. Besides, the “effect on the control cell phenotype” value in test [8] was “no effect”. The “ability to form colonies in a soft agar assay” value in test [9] is listed as “inhibited”.

On to `Cc1c[nH]c(/C=C2\C(=O)Nc3ccccc32)c1CCC(=O)O` [SU5402], for which the p38 phosphorylation entry is reported as “suppressed” in test [10], “decreased” in test [11] and “inhibited” in test [12]. Also, the “transformed phenotype (morphology)” value in test [7] is given as “reverted”. In addition, in test [8], the “effect on the control cell phenotype” value is given as “no effect”. Besides, the “ability to form colonies in a soft agar assay” value in test [9] is “inhibited”.
